We go through eight compounds from patent US20230165922A1, “APPLICATION OF RADIX GENTIANAE MACROPHYLLAE AND MONOMER COMPOUND THEREOF IN KILLING MITES” (SMILEBIOTECK ZHUHAI LIMITED, priority 2020, published 2023).

The structures appear in SMILES notation.

Test [1] relates to D.folliculorum. Briefly: Preliminary in-vitro screening of monomer compounds for effect on survival time of Demodex mites. The conditions noted are these: 20° C., humidity 96%; for Survival time (hours) of D.folliculorum in vitro: 35 µL monomer compound solution in 10% DMSO, observed every 2 hours, mean ± SD. An excerpt: The names and molecular formulas of the monomer compounds are shown in the following table: The monomer compounds were purchased from Chengdu Herbpurify Co., Ltd., and were standard references.
The powders of the monomer compounds shown in Table 2 were separately dissolved in dimethyl sulfoxide (DMSO), and then diluted with sterilized double-distilled water to make the final concentration of DMSO 10%, which could not shorten the survival time of Demodex mites as per a controlled study. The negative control group received DMSO mixed with sterilized water at a final concentration of 10%.
As in Example 1, 35 µL of each solution was added to a glass slide, and the survival of the mites was observed under an optical microscope every 2 hours. During the experiment, the Demodex mites were observed by two skilled operators separately for the activities (bodies, limbs and the like) through the microscope to determine whether they were dead or not. If the two operators gave different results, the survival status was determined independently by a third skilled operator. The in-vitro culture was conducted in a climatic chamber at a temperature of 20° C. and a humidity of 96%. During the observation, the glass slides were transported in a wet box to ensure the high humidity.
In this experiment, statistical analysis was conducted using SPSS22.0 statistical software, normality test was conducted using Shapiro-Wilk test, and homogeneity of variance test was conducted using Bartlett’s test.
Effects of monomer compounds of traditional Chinese medicine on survival time of D.folliculorum The in-vitro culture of the Demodex mites was conducted in an environment at a humidity of 96% and a temperature of 20° C. The survival of the Demodex mites was observed dynamically and the survival time was recorded.

Test [2] deals with D.folliculorum. Briefly: In-vitro culture of Demodex mites with traditional Chinese medicine decoctions (survival time). To be noted: 20° C., humidity 96%. How it is done:
The ethical guidelines of “The Declaration of Helsinki” and “Measures for the Ethical Review of Biomedical Research Involving Humans” were strictly followed in this study. Demodex mites from patients diagnosed with ocular Demodex infestation were collected in this study. Subjects who met the inclusion criteria were enrolled after giving an informed conversation and signing an informed consent.
The detection of Demodex mites was performed according to the conventional method of eyelash microscopy (12,20). 3 eyelashes were collected from each eyelid, with a total of 12 eyelashes. […] Demodex mites in all periods were counted and classified according to morphology (specific standard: D.brevis with a head-to-body ratio of 1:1, and D.folliculorum with a head-to-body ratio of 1:3 to 1:4). […]
On the basis of the above detection of Demodex mites, 35 µL of the solutions was separately added to the slides, and the survival of the mites was observed every 2 hours. […] If the two operators gave different results, the survival status was determined independently by a third skilled operator. […]
60 g of dried ready-to-use forms was weighed using an electronic balance, and soaked in water with an amount of 10 times (600 mL) in a marmite overnight. […]

Regarding `C=C[C@@H]1C2=CCOC(=O)C2=CO[C@H]1O[C@@H]1O[C@H](CO)[C@@H](O)[C@H](O)[C@H]1O` [Gentiopicroside], the “Survival time (hours) of D.folliculorum in vitro” value (“Survival time (hours)” below) in test [1] and in test [1] (listed as gentiopicroside) was 37.31 ± 36.06 h each time. Also, in test [1] (compared with 10% DMSO solution), the “Effect on in-vitro survival time of Demodex mites versus 10% DMSO negative control” value is on record as “significantly shorter”.

Take `C[C@@H]1[C@H]2[C@H](O[C@@H]3O[C@H](CO)[C@@H](O)[C@H](O)[C@H]3O)OC=C(C(=O)O)[C@H]2C[C@@H]1O` [Loganic acid]: in test [1], the “Survival time (hours)” value amounted to 61.56 ± 22.84 h.

`COC(=O)c1c2c(c3ccccc3c1O)OC(C)(C)C=C2` [Mollugin]: the “Survival time (hours)” value in test [1] stood at 61.10 ± 25.12 h.

Turning to `C=C(C)[C@@H]1CC[C@]2(C)[C@H](CC=C3[C@@H]4[C@@H](C)[C@H](C)CC[C@]4(C)CC[C@]32C)[C@@]1(C)CCC(=O)O` [Roburic acid], the “Survival time (hours)” value in test [1] was determined as 63.41 ± 12.20 h.

For the compound `COc1cc2ccc(=O)oc2cc1O` [Scopoletin], the “Survival time (hours)” value in test [1] worked out at 54.67 ± 25.66 h.

`C=C[C@H]1[C@H](O[C@@H]2O[C@H](CO)[C@@H](O)[C@H](O)[C@H]2O)OC=C2C(=O)OCC[C@H]21` [Sweroside]: in test [1], the “Survival time (hours)” value stood at 60.79 ± 25.98 h.

As for `C=C[C@H]1[C@H](O[C@@H]2O[C@H](CO)[C@@H](O)[C@H](O)[C@H]2O)OC=C2C(=O)OCC[C@]21O` [Swertiamarin], in test [1], the “Survival time (hours)” value was found to be 59.68 ± 10.97 h.

Consider `CC1=CCC(O)(C(C)C)CC1` (centres unmarked) [T40, terpinen-4-ol], for which, in test [2] (35 µL solution on slide, decoctions of 60 g medicine made up to 100 mL water, TTO and T4O 10% in sterilized water, observed every 2 hours, mean ± SD), the “Survival time (hours)” value was determined as 40.50 ± 13.12 h. Besides, the “Difference in in-vitro survival time of Demodex mites versus control groups (statistical comparison)” value in test [2] (Bonferroni comparison with negative control sterilized water (and TTO, T40 groups)) was “did not show significant differences”.
